Earlier results, collected in US20200338153A1, “ANAEROBIC ANTIOXIDANT COMPOSITION” (priority 2019, published 2020).

Conditions: in vivo

## CC(=O)N[C@@H](CS)C(=O)O [NAC, N-acetylcysteine]
  fraction renally excreted by the body: 30%
